In patent publication US9321760B2 (Merck Patent GmbH, priority 2011, dated 2016):

Biological target: P70S6K (T412E mutant) (Homo sapiens (Human), UniProt P23443, T412E)
Assay: P70S6K enzyme assay
Type: biochemical
Conditions: 3 nM P70S6K T412E mutant, 24 μM ATP, 1 μM FITC-AHA-AKRRRLSSLRA-OH substrate peptide, 90 min at 25° C.
Experimental: The IC50 values reported for the compounds in the Experimental section were derived from the following protocol for the p70S6K enzyme assay.
P70S6K inhibitor compounds were diluted and plated in 96 well plates. A reaction mixture including the following components was then added to the compound plate to initiate the enzyme reaction; P70S6K (3 nM, T412E mutant, Millipore) was mixed with 24 μM ATP in an assay buffer containing 100 mM Hepes (pH 7.5), 5 mM MgCl2, 1 mM DTT, 0.015% Brij and 1 μM of the substrate peptide FITC-AHA-AKRRRLSSLRA-OH (derived from the S6 ribosomal protein sequence, FITC=fluorescein isothiocyanate, AHA=6-aminohexanoic acid). The reaction was incubated for 90 min at 25° C., before the addition of 10 mM EDTA to stop the reaction. The proportion of substrate and product (phosphorylated) peptide was analysed on a Caliper Life Sciences Lab Chip 3000, using a pressure of −1.4 psi, and upstream and downstream voltages of −3000 and −700 respectively. Product peaks were resolved before substrate peaks on the resulting chromatograms.

Chain of P70S6K (T412E mutant) (P23443 whole entry T412E): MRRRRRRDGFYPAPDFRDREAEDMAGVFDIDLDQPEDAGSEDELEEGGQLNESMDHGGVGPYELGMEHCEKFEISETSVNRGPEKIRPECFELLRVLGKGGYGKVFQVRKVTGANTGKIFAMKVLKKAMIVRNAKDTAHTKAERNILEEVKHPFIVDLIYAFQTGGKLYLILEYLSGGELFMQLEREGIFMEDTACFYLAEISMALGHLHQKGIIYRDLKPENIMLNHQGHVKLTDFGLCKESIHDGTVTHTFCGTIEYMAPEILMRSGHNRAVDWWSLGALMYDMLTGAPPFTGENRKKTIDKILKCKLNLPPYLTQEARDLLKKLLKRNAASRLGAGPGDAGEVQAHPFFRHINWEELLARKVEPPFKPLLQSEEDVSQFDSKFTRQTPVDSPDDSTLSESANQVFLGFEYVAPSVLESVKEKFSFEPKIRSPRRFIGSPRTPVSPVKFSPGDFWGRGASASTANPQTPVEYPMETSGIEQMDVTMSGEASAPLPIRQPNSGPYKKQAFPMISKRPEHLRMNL

| IC50 [nM] | SMILES |
| --- | --- |
| 6 | NCC(c1ccc(Cl)c(Cl)c1)N1CCN(c2ncnc(N)c2-c2ccc(F)cc2)CC1 (centres unmarked) [Example 157, 6-{4-[2-Amino-1-(3,4-dichloro-phenyl)-ethyl]-piperazin-1-yl}-5-(4-fluoro-phenyl)-pyrimidin-4-ylamine] |
| 920 | Nc1ncnc(N2CCN([C@@H](CN3CCC3)c3cccc(F)c3)CC2)c1-c1ccc(F)cc1 [Example 103, 6-{4-[(R)-2-Azetidin-1-yl-1-(3-fluoro-phenyl)-ethyl]-piperazin-1-yl}-5-(4-fluoro-phenyl)-pyrimidin-4-ylamine] |
| 820 | N#Cc1c(N)ncnc1N1CCC(N)(C(=O)N[C@@H](CCO)c2ccccc2)CC1 [Example 226, 4-Amino-1-(6-amino-5-cyano-pyrimidin-4-yl)-piperidine-4-carboxylic acid ((S)-3-hydroxy-1-phenyl-propyl)-amide] |
| 290 | Nc1ncnc(N2CCN(C(CN3CCC3)c3ccc(-n4ccnc4)cc3)CC2)c1-c1ccc(F)cc1 (centres unmarked) [Example 116, 6-{4-[2-Azetidin-1-yl-1-(4-imidazol-1-yl-phenyl)-ethyl]-piperazin-1-yl}-5-(4-fluoro-phenyl)-pyrimidin-4-ylamine] |
| 87 | C[C@H](NC(=O)C1(N)CCN(c2ncnc(N)c2-c2cn[nH]c2)CC1)c1ccc(Cl)cc1 [Example 224, 4-Amino-1-[6-amino-5-(1H-pyrazol-4-yl)-pyrimidin-4-yl]-piperidine-4-carboxylic acid [(S)-1-(4-chloro-phenyl)-ethyl]-amide] |
| 2.6 | Nc1ncnc(N2CCC(N)(CNC(=O)c3ccc(F)cc3F)C2)c1-c1cccc(F)c1 (centres unmarked) [Example 204, N-{3-Amino-1-[6-amino-5-(3-fluoro-phenyl)-pyrimidin-4-yl]-pyrrolidin-3-ylmethyl}-2,4-difluoro-benzamide] |
| 1600 | Nc1ncnc(N2CCN([C@@H](CN3CCC3)c3ccc4c(c3)OCCO4)CC2)c1-c1ccc(F)cc1 [Example 94, 6-{4-[(R)-2-Azetidin-1-yl-1-(2,3-dihydro-benzo[1,4]dioxin-6-yl)-ethyl]-piperazin-1-yl}-5-(4-fluoro-phenyl)-pyrimidin-4-ylamine] |
| 240 | N#CC(c1ccc(F)cc1)N1CCN(c2ncnc(N)c2-c2ccc(F)cc2)CC1 (centres unmarked) [Example 158, {4-[6-Amino-5-(4-fluoro-phenyl)-pyrimidin-4-yl]-piperazin-1-yl}-(4-fluoro-phenyl)-acetonitrile] |
| 4.1 | NCC(c1cccc(F)c1)N1CCN(c2ncnc(N)c2-c2ccc(F)cc2)CC1 (centres unmarked) [Example 169, 6-{4-[2-Amino-1-(3-fluoro-phenyl)-ethyl]-piperazin-1-yl}-5-(4-fluoro-phenyl)-pyrimidin-4-ylamine] |
| > 1000 | N#CC(c1ccc(C(F)(F)F)cc1)N1CCN(c2ncnc(N)c2Br)CC1 (centres unmarked) [Example 167, [4-(6-Amino-5-bromo-pyrimidin-4-yl)-piperazin-1-yl]-(4-trifluoromethyl-phenyl)-acetonitrile] |
| 280 | C[C@@H](c1ccccc1)[C@H](CN)N1CCN(c2ncnc(N)c2-c2ccc(F)cc2)CC1 [Example 172, 6-[4-((1R,2S)-1-Aminomethyl-2-phenyl-propyl)-piperazin-1-yl]-5-(4-fluoro-phenyl)-pyrimidin-4-ylamine] |
| 3800 | Nc1ncnc(N2CCN(C(CN3CCC3)c3ccc(F)c(C(F)(F)F)c3)CC2)c1-c1cn[nH]c1 (centres unmarked) [Example 101, 6-{4-[2-Azetidin-1-yl-1-(4-fluoro-3-trifluoromethyl-phenyl)-ethyl]-piperazin-1-yl}-5-(1H-pyrazol-4-yl)-pyrimidin-4-ylamine] |
| 460 | Nc1ncnc(N2CCN(C(CCN3CCC3)c3ccc(Cl)cc3)CC2)c1-c1ccc(F)cc1 (centres unmarked) [Example 112, 6-{4-[3-Azetidin-1-yl-1-(4-chloro-phenyl)-propyl]-piperazin-1-yl}-5-(4-fluoro-phenyl)-pyrimidin-4-ylamine] |
| 260 | Nc1ncnc(N2CCN([C@H](CN3CCC3)c3ccc4c(c3)OCCO4)CC2)c1-c1ccc(F)cc1 [Example 98, 6-{4-[(S)-2-Azetidin-1-yl-1-(2,3-dihydro-benzo[1,4]dioxin-6-yl)-ethyl]-piperazin-1-yl}-5-(4-fluoro-phenyl)-pyrimidin-4-ylamine] |

More lines, now with the values behind:

| SMILES | IC50 [nM] |
| --- | --- |
| Nc1ncnc(N2CCN(C(CN3CCCCC3)c3cccc(C(F)(F)F)c3)CC2)c1-c1ccc(F)cc1 (centres unmarked) [Example 65, 5-(4-Fluorophenyl)-6{4-[1-(3-trifluoro-phenyl)-2-piperidin-1-yl-ethyl]-piperazin-1-yl}-pyrimidin-4-ylamine] | 120 |
| COc1c(N)ncnc1N1CCN(C(CN)c2ccc(C(F)(F)F)cc2)CC1 (centres unmarked) [Example 31, 6-(4-(2-amino-1-(4-(trifluoromethyl)phenyl)ethyl)piperazin-1-yl)-5-methoxypyrimidin-4-amine] | 40 |
| NCC(c1ccccc1)N1CCN(c2ncnc(N)c2Br)CC1 (centres unmarked) [Example 5, 6-[4-(2-Amino-1-phenyl-ethyl)-piperazin-1-yl]-5-bromo-pyrimidin-4-ylamine] | 330 |
| CCOc1c(N)ncnc1N1CCN(C(CN)c2ccc(C(F)(F)F)cc2)CC1 (centres unmarked) [Example 32, 6-(4-(2-amino-1-(4-(trifluoromethyl)phenyl)ethyl)piperazin-1-yl)-5-ethoxypyrimidin-4-amine] | 48.5 |
| CN(C)CC(c1ccc(C(F)(F)F)cc1)N1CCN(c2ncnc(N)c2C2CC2)CC1 (centres unmarked) [Example 28, 5-Cyclopropyl-6-(4-(2-(dimethylamino)-1-(4-(trifluoromethyl)phenyl)ethyl)piperazin-1-yl)pyrimidin-4-amine] | 260 |
| NCC(c1ccc(C(F)(F)F)cc1)N1CCN(c2ncnc(N)c2F)CC1 (centres unmarked) [Example 74, 6-{4-[2-Amino-1-(4-trifluoromethyl-phenyl)-ethyl]-piperazin-1-yl}-5-fluoro-pyrimidin-4-ylamine] | 370 |
| Nc1ncnc(N2CCN(C(CN3CCC3)c3cccc(F)c3)CC2)c1-c1ccc(F)cc1 (centres unmarked) [Example 90, 6-{4-[2-Azetidin-1-yl-1-(3-fluoro-phenyl)-ethyl]-piperazin-1-yl}-5-(4-fluoro-phenyl)-pyrimidin-4-ylamine] | 600 |
| CN(C)CC(c1ccc(C(F)(F)F)cc1)N1CCN(c2ncnc(N)c2-c2ccc(N)nc2)CC1 (centres unmarked) [Example 20, 5-(6-aminopyridin-3-yl)-6-(4-(2-(dimethylamino)-1-(4-(trifluoromethyl)-phenyl)ethyl)piperazin-1-yl)pyrimidin-4-amine] | 69 |
| C=Cc1c(N)ncnc1N1CCN(C(CN)c2ccc(C(F)(F)F)cc2)CC1 (centres unmarked) [Example 19, 6-(4-(2-amino-1-(4-(trifluoromethyl)-phenyl)ethyl)piperazin-1-yl)-5-vinylpyrimidin-4-amine] | 19 |
| CCn1cc(-c2c(N)ncnc2N2CCN(C(CN)c3ccc(C(F)(F)F)cc3)CC2)cn1 (centres unmarked) [Example 39, 6-(4-(2-amino-1-(4-(trifluoromethyl)phenyl)ethyl)piperazin-1-yl)-5-(1-ethyl-1H-pyrazol-4-yl)pyrimidin-4-amine] | 12 |
| Nc1ncnc(N2CCN(Cc3ccc(C(F)(F)F)cc3)CC2)c1-c1ccc(F)cc1 [Example 13, 5-(4-Fluoro-phenyl)-6-[4-(4-trifluoromethyl-benzyl)-piperazin-1-yl]-pyrimidin-4-ylamine] | 7.2 |
| N#Cc1ccc([C@@H](CN2CCC2)N2CCN(c3ncnc(N)c3-c3cn[nH]c3)CC2)cc1 [Example 88, 4-((S)-1-{4-[6-Amino-5-(1H-pyrazol-4-yl)-pyrimidin-4-yl]-piperazin-1-yl}-2-azetidin-1-yl-ethyl)-benzonitrile] | 6700 |
